Measurements: ChEMBL document CHEMBL4725275, “Structural basis for the stabilization of amyloidogenic immunoglobulin light chains by hydantoins” (Bioorg Med Chem Lett, 2020)
Values after ≈ are worked out from the molar mass of the structure shown. Active and inactive are the calls of the source. The rule behind the calls is not given here.

What was measured:
[1] = biological target: Immunoglobulin lambda variable 6-57 (Homo sapiens) (UniProt P01721); assay: Binding affinity to AL patient derived full length IGLV6-57 assessed as protection against proteinase K-mediated digestion by measuring fraction remaining at 100 uM measured after 2 hrs by analytical size-exclusion chromatography
Sequence of Immunoglobulin lambda variable 6-57 (Homo sapiens) (P01721 whole entry): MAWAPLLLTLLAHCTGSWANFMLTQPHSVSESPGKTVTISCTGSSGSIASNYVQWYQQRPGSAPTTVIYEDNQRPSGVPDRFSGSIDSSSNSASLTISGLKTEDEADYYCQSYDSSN

[2] = organism: Homo sapiens; assay: Kinetic stabilization of AL patient derived recombinant full length IGLV6-57 C214S mutant assessed as induction of dimer formation at 100 uM by sedimentation velocity analytical ultracentrifugation
[3] = Solubility of the compound; assay type: physicochemical

Row | Activity [1] | Activity [2] | solubility [3] | SMILES
1 | Active | – | – | CC(C)C[C@H]1NC(=O)N(CC(=O)Nc2ccc(C(F)(F)F)cc2)C1=O
2 | – | Active | 100 µM (≈ 38.3 µg/mL) | CC1CCCCC12NC(=O)N(CC(=O)Nc1ccc(C(F)(F)F)cc1)C2=O (stereo not given)
3 | – | Active | – | CCN(CC)c1ccc2c(C)cc(=O)oc2c1
4 | Active | – | – | CC(C)C[C@@H]1NC(=O)N(CC(=O)Nc2ccc(C(F)(F)F)cc2)C1=O
